According to publication PMC10720285 (ACS Omega, 2023):

Legend:
Assay type in all cases: cell-based
[1] = system: MCF7; assay: MTT antiproliferative assay, MCF7; conditions: Homo sapiens, MCF7, 72 h, read-out: IC50 values MCF7
[2] = system: HepG2; assay: MTT antiproliferative assay, HepG2; conditions: Homo sapiens, HepG2, 72 h, read-out: IC50 values HepG2
[3] = system: A549; assay: MTT antiproliferative assay, A549; conditions: Homo sapiens, A549, 72 h, read-out: IC50 values A549
[4] = system: MCF-10A; assay: MTT cytotoxicity assay, noncancerous MCF-10A; conditions: Homo sapiens, 72 h, read-out: IC50 values MCF-10A

Row | SMILES | IC50 [1] | IC50 [2] | IC50 [3] | IC50 [4]
1 | CCO/C=N/C1=C(C#N)C(c2cccs2)C2=C(CCCC2=O)O1 (centres unmarked) [Compound 2, Ethyl (E)-N-(3-Cyano-5-oxo-4-(thiophen-2-yl)-5,6,7,8-tetrahydro-4H-chromen-2-yl)formimidate] | 29.4 ± 2.35 µM | 27.3 ± 3.87 µM | 29.9 ± 3.05 µM | –
2 | Nc1nc(=S)[nH]c2c1C(c1cccs1)C1=C(CCCC1=O)O2 (centres unmarked) [Compound 4b, 4-Amino-5-(thiophen-2-yl)-2-thioxo-1,2,5,7,8,9-hexahydro-6H-chromeno[2,3-d]pyrimidin-6-one] | 18.8 ± 3.19 µM | 17.8 ± 2.04 µM | 17.1 ± 3.17 µM | 58.1 ± 2.34 µM
3 | CCOC(=O)NC1=C(C#N)C(c2cccs2)C2=C(CCCC2=O)O1 (centres unmarked) [Compound 14, Ethyl (3-Cyano-5-oxo-4-(thiophen-2-yl)-5,6,7,8-tetrahydro-4H-chromen-2-yl)carbamate] | 39.3 ± 3.12 µM | 37.2 ± 1.45 µM | 40.4 ± 3.15 µM | –
4 | O=C1CCCC2=C1C(c1cccs1)C1=C(NC(=O)N3CCN=C13)O2 (centres unmarked) [Compound 15, 12-(Thiophen-2-yl)-2,6,8,9,10,12-hexahydro-5H-chromeno[3,2-e]imidazo[1,2-c]pyrimidine-5,11(3H)-dione] | 19.3 ± 3.37 µM | 19.3 ± 2.06 µM | 19 ± 3.45 µM | 52.3 ± 2.18 µM
5 | N=c1c2c(nc(-c3ccccc3)n1N)OC1=C(C(=O)CCC1)C2c1cccs1 (centres unmarked) [Compound 19, 3-Amino-4-imino-2-phenyl-5-(thiophen-2-yl)-3,4,5,7,8,9-hexahydro-6H-chromeno[2,3-d]pyrimidin-6-one] | 15.2 ± 1.65 µM | 13.3 ± 1.96 µM | 14.3 ± 1.96 µM | 60.5 ± 1.94 µM
6 | COc1cccc2c1C(=O)c1c(O)c3c(c(O)c1C2=O)C[C@@](O)(C(=O)CO)C[C@@H]3O[C@H]1C[C@H](N)[C@H](O)[C@H](C)O1 [doxorubicin, reference compound] | 1.68 ± 0.11 µM | 2.71 ± 0.12 µM | 2.22 ± 0.22 µM | 87.3 ± 1.47 µM

Further molecules by falling IC50 [1], results first:

Row | IC50 [1] | IC50 [2] | IC50 [3] | SMILES | IC50 [4]
7 | 60.1 ± 3.45 µM | 50.5 ± 3.16 µM | 50.7 ± 3.23 µM | N#CCc1nc(N)c2c(n1)OC1=C(C(=O)CCC1)C2c1cccs1 (centres unmarked) [Compound 11, 2-(4-Amino-6-oxo-5-(thiophen-2-yl)-6,7,8,9-tetrahydro-5H-chromeno[2,3-d]pyrimidin-2-yl)acetonitrile] | –
8 | 39.8 ± 3.35 µM | 33.9 ± 3.34 µM | 36.3 ± 3.37 µM | N#CC1=C(N)OC2=C(C(=O)CCC2)C1c1cccs1 (centres unmarked) [Compound 1, 2-Amino-5-oxo-4-(thiophen-2-yl)-5,6,7,8-tetrahydro-4H-chromene-3-carbonitrile] | –
9 | 29 ± 2.38 µM | 25.3 ± 1.34 µM | 24.3 ± 3.88 µM | CC(=O)N(C(C)=O)C1=C(C#N)C(c2cccs2)C2=C(CCCC2=O)O1 (centres unmarked) [Compound 17, N-Acetyl-N-(3-cyano-5-oxo-4-(thiophen-2-yl)-5,6,7,8-tetrahydro-4H-chromen-2-yl)acetamide] | –
10 | 18.1 ± 2.05 µM | 19.3 ± 2.07 µM | 19.2 ± 3.88 µM | NC(=S)Cc1nc(N)c2c(n1)OC1=C(C(=O)CCC1)C2c1cccs1 (centres unmarked) [Compound 13, 2-(4-Amino-6-oxo-5-(thiophen-2-yl)-6,7,8,9-tetrahydro-5H-chromeno[2,3-d]pyrimidin-2-yl)ethanethioamide] | 51.6 ± 1.98 µM
11 | 14.3 ± 2.05 µM | 13.7 ± 3.81 µM | 14.9 ± 3.12 µM | Nc1nc(=O)[nH]c2c1C(c1cccs1)C1=C(CCCC1=O)O2 (centres unmarked) [Compound 4a, 4-Amino-5-(thiophen-2-yl)-5,7,8,9-tetrahydro-2H-chromeno[2,3-d]pyrimidine-2,6(1H)-dione] | 60.1 ± 2.31 µM
12 | 5.6 ± 1.12 µM | 6.26 ± 0.32 µM | 7.28 ± 1.34 µM | Nc1c2c(nc(=S)n1-c1ccccc1)OC1=C(C(=O)CCC1)C2c1cccs1 (centres unmarked) [Compound 7, 4-Amino-3-phenyl-5-(thiophen-2-yl)-2-thioxo-2,3,5,7,8,9-hexahydro-6H-chromeno[2,3-d]pyrimidin-6-one] | 78.5 ± 2.05 µM
13 | 1.61 ± 0.12 µM | 2.02 ± 0.15 µM | 1.87 ± 0.32 µM | N=c1c2c(ncn1N)OC1=C(C(=O)CCC1)C2c1cccs1 (centres unmarked) [Compound 3, 3-Amino-4-imino-5-(thiophen-2-yl)-3,4,5,7,8,9-hexahydro-6H-chromeno[2,3-d]pyrimidin-6-one] | 77.3 ± 3.22 µM
